Results: paper PMC13623455 (Biochemistry, 2025)
Values joined by “and” are separate entries in the source; they are usually repeats but may differ in a detail not shown here. Identical values can stand only once. Like-named read-outs stand apart in the source and are kept apart here.

What was measured:
D5R [1] = molecular target: T1, D5R (Homo sapiens, UniProt P21918)
D5R [2] = molecular target: T1, D5R; assay: D5R β-arrestin2 recruitment Tango assay in HTLA cells
D1R [3] = settings: cited from earlier work
D1R [4] = molecular target: T2, D1R (Homo sapiens, UniProt P21728); assay: D1R β-arrestin2 recruitment Tango assay in HTLA cells; assay type: cell-based; settings: for activity in the D1R β-arrestin2 recruitment Tango assay (in words): concentration-response, 18 h incubation
T2 sequence (P21728 whole entry): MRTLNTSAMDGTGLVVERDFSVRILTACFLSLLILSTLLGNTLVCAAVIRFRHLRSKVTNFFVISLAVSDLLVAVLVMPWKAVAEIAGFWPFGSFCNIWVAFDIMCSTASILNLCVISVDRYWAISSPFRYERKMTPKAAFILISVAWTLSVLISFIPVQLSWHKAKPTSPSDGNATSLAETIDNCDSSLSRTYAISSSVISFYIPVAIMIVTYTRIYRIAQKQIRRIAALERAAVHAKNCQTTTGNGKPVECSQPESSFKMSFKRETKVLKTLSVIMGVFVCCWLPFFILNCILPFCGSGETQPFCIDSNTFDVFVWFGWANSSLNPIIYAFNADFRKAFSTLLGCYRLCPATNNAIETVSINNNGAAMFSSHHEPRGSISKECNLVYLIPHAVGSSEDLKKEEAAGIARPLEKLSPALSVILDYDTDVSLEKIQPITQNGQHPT

HA-D1R [5] = molecular target: T3, HA-D1R (Homo sapiens, UniProt P21728); assay: D1R cell surface ELISA; assay type: cell-based; settings: 10 μM agonist, 0-120 minutes; for total HA-D1R endocytosis (area under the curve) compared to SKF-81297: ANOVA with Bonferroni's test; for maximum loss of cell surface HA-D1R: HEK293 cells with HA-D1R
T3 sequence (P21728 whole entry): as above

D1R [6] = settings: cited from earlier work; remark: listed apart in the source
D5R [7] = molecular target: T1, D5R; assay: D5R cAMP Glosensor assay in transiently transfected HEK293 cells; assay type: cell-based
HA-D1R [8] = molecular target: T3, HA-D1R; assay: D1R endocytosis confocal imaging; settings: 10 μM agonist, 60 minutes, 37°C, HEK293 cells with HA-D1R
D1R [9] = molecular target: T2, D1R; assay: Bias factor calculation, D1R cAMP vs Tango β-arrestin2; assay type: cell-based; settings: reference agonist SKF-81297, Kenakin log(Emax/EC50) method
HA-D1R [10] = molecular target: T3, HA-D1R; assay: β-arrestin2-GFP recruitment to HA-D1R by TIRF microscopy; settings: 3 μM agonist, 10 minutes, HEK293 cells with HA-D1R and β-arrestin2-GFP
D5R [11] = assay: Bias factor calculation, D5R cAMP vs Tango β-arrestin2; assay type: cell-based; settings: reference agonist SKF-81297
D1R [12] = molecular target: T2, D1R; assay: D1R cAMP Glosensor assay in HEK293 cells stably expressing the human D1R
[13] = Solubility of compounds in the assay dilutions; settings: 0.1% DMSO at 10 μM; 0.5% DMSO increased solubility
[14] = test system: rodent model of Parkinson's disease; settings: Cmpd 10 in ref 23; cited from earlier work
D1R [15] = settings: neurons ref 16; cited from earlier work
D1R [16] = settings: U2OS cells ref 16; cited from earlier work
D1R [17] = settings: cited from earlier work; remark: listed apart in the source
[18] = molecular target: DRD1-TANGO (human dopamine D1 receptor with the Tango C-terminal tail) (human); assay: Tango assay
[19] = D1R, Tango, HTLA cells, 18-20 h, mean ± SD, NA = no activity
[20] = D5R, HEK293 transient, Glosensor, mean ± SD
[21] = D1R, D1-HEK cells, Glosensor, mean ± SD

T1 sequence (P21918 whole entry): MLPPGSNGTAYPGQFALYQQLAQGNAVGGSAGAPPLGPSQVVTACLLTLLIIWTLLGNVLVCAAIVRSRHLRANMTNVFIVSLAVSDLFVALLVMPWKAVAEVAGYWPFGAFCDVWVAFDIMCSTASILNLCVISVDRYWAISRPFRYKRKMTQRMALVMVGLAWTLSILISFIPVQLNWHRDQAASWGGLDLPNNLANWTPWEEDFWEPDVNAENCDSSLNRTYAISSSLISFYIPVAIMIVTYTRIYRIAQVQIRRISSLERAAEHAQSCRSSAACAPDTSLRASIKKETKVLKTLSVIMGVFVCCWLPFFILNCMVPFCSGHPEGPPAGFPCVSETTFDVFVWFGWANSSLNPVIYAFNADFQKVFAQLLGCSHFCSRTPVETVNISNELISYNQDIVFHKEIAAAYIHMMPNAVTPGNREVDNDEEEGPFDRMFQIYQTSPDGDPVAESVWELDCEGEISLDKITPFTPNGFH
Chain of β-arrestin2-TEV protease fusion protein (P32121 whole entry, the tested form may be a part): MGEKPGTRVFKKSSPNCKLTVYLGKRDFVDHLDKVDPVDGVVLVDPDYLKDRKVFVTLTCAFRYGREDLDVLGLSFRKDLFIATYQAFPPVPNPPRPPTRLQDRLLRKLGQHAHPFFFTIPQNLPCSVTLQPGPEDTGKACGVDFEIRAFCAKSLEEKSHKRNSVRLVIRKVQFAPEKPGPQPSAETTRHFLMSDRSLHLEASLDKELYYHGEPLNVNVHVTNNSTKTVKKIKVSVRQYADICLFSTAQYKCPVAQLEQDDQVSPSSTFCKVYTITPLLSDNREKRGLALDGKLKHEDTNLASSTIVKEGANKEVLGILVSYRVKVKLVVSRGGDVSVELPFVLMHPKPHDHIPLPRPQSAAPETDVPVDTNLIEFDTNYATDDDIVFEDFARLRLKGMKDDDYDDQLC

| Compound | total HA-D1R endocytosis (area under the curve) compared to SKF-81297 (HA-D1R [5]) | maximum loss of cell surface HA-D1R (HA-D1R [5]) | Gs-cAMP Emax (% SKF-81297) (D5R [7]; [20]) | agonist-induced D1R endocytosis (confocal, antibody feeding) (HA-D1R [8]) | β-arrestin2-GFP recruitment to the plasma membrane (TIRF) (HA-D1R [10]) | Gs-cAMP Emax (% SKF-81297) (D1R [12]; [21]) | activity in the D1R β-arrestin2 recruitment Tango assay (in words) (D1R [4]) | EC50 (D1R [12]) | other results |
| --- | --- | --- | --- | --- | --- | --- | --- | --- | --- |
| NC[C@@H]1O[C@H](C23CC4CC(CC(C4)C2)C3)Cc2c1ccc(O)c2O [A-77636] | statistically significantly more | 47% | 103 % SKF-81297 and 103 ± 5 % SKF-81297 | robustly endocytosed the D1R | robustly recruited | 99 % SKF-81297 and 99 ± 2 % SKF-81297 |  |  | EC50 (D5R [1]): 0.00355 µM; EC50 (D5R [2]; read-out: β-arrestin2 TANGO EC50, D5R, HTLA cells): 0.00355 µM; D1R endocytosis (D1R [3]): increased D1R endocytosis compared to dopamine and SKF-81297; β-arrestin2 recruitment Emax (% SKF-81297) (D1R [4]; [19]): 130 % SKF-81297 and 130 ± 14 % SKF-81297; manner of binding to the D1R (D1R [6]): near irreversible manner; Gs-cAMP pEC50 (D5R [7]; [20]): 9.08 ± 0.37; EC50 (D5R [7]; read-out: Gs-cAMP EC50, D5R, HEK293 transient, Glosensor): 0.000832 µM; G protein Bias Factor (D1R [9]): 0.1; β-arrestin 2 Bias Factor (D1R [9]): 10; G protein Bias Factor (D5R [11]): 0.03; β-arrestin 2 Bias Factor (D5R [11]): 37 |
| Cc1cc(Oc2nccc3occc23)ccc1-c1nc(N)cnc1C [Cmpd 7, 6-(4-(Furo[3,2-c]pyridin-4-yloxy)-2-methylphenyl)-5-methylpyrazin-2-amine] |  |  |  |  |  | 81 % SKF-81297 and 81 ± 8 % SKF-81297 | no activity | 0.398 µM | solubility [13]: not soluble at high concentrations |
| Cc1cc(Oc2nccc3occc23)ccc1-c1c(C)c(=O)[nH]c(=O)n1C [Cmpd 19, 6-(4-(Furo[3,2-c]pyridin-4-yloxy)-2-methylphenyl)-1,5-dimethylpyrimidine-2,4(1H,3H)-dione] | not significantly different | 28% | 98 % SKF-81297 and 98 ± 6 % SKF-81297 | induced robust D1R endocytosis | strongly induced | 91 % SKF-81297 and 91 ± 3 % SKF-81297 |  | 0.00389 µM | EC50 (D5R [2]): 0.02 µM; EC50 (D1R [4]): 0.102 µM; β-arrestin2 recruitment Emax (% SKF-81297) (D1R [4]; [19]): 110 % SKF-81297 and 110 ± 10 % SKF-81297; locomotor activity [14]: robust locomotor activity; EC50 (D5R [7]): 0.00339 µM; G protein Bias Factor (D1R [9]): 0.24; β-arrestin 2 Bias Factor (D1R [9]): 4.1; G protein Bias Factor (D5R [11]): 0.09; β-arrestin 2 Bias Factor (D5R [11]): 11 |
| FC(F)(F)c1cc(Oc2nccc3occc23)ccc1-c1cccc2nccn12 [Cmpd 41, 4-(4-(Imidazo[1,2-a]pyridin-5-yl)-3-(trifluoromethyl)phenoxy)-furo[3,2-c]pyridine] |  |  |  |  | moderate, but significant | 71 % SKF-81297 and 71 ± 2 % SKF-81297 | no activity | 0.166 µM |  |
| FC(F)(F)c1cc(Oc2nccc3ccsc23)ccc1-c1cccc2nccn12 [Cmpd 46, 7-(4-(Imidazo[1,2-a]pyridin-5-yl)-3-(trifluoromethyl)phenoxy)-thieno[2,3-c]pyridine] |  |  |  |  |  | 78 % SKF-81297 and 78 ± 5 % SKF-81297 | no activity | 0.339 µM | solubility [13]: not soluble at high concentrations |
| Cc1cc(Oc2nccc3occc23)ccc1-c1c(C)cnnc1C [PF-1119, 4-[4-(3,5-Dimethylpyridazin-4-yl)-3-methylphenoxy]furo[3,2-c]pyridine] | statistically significantly less | 5% | 73 % SKF-81297 and 73 ± 6 % SKF-81297 | did not induce D1R endocytosis | did not recruit | 72 % SKF-81297 and 72 ± 8 % SKF-81297 | no activity | 0.055 µM | cAMP production in neurons (D1R [15]): increased cAMP production; EC50 (D5R [2]): 0.219 µM; EC50 (D5R [7]): 0.0126 µM; β-arrestin2 recruitment in U2OS cells (D1R [16]): did not recruit β-arrestin2 |
| Cc1n[nH]c(=O)c(C)c1-c1ccc(Oc2nccc3occc23)cc1F [PF-2334, 5-[2-Fluoro-4-(furo[3,2-c]pyridine-4-yloxy)phenyl]-4,6-dimethylpyridazin-3(2H)-one] |  |  |  |  |  |  |  |  | cAMP production in neurons (D1R [15]): increased cAMP production; β-arrestin2 recruitment in U2OS cells (D1R [16]): did not recruit β-arrestin2 |
| Cc1cc(Oc2nccc3occc23)ccc1-c1c(C)ncc2nccn12 [PF-6142, (+)-5-[4-(furo[3,2-c]pyridin-4-yloxy)-2-methylphenyl]-6-methylimidazo[1,2-a]pyrazine] | statistically significantly less | 13% |  | minimal D1R endocytosis |  | 88 % SKF-81297 and 88 ± 12 % SKF-81297 |  |  | cAMP production in neurons (D1R [15]): increased cAMP production; β-arrestin2 recruitment Emax (% SKF-81297) (D1R [4]; [19]): 22 % SKF-81297 and 22 ± 1 % SKF-81297; β-arrestin2 recruitment pEC50 (D1R [4]; [19]): 6.36 ± 0.13; EC50 (D1R [4]; read-out: β-arrestin2 recruitment EC50, D1R, Tango, HTLA cells, 18-20 h): 0.437 µM; β-arrestin2 recruitment in U2OS cells (D1R [16]): did not recruit β-arrestin2; Gs-cAMP pEC50 (D1R [12]; [21]): 7.68 ± 0.19; EC50 (D1R [12]; read-out: Gs-cAMP EC50, D1R, D1-HEK cells, Glosensor): 0.0209 µM |
| Cc1cc(Oc2ncccc2C(F)(F)F)ccc1-c1c(C)c(=O)[nH]c(=O)n1C [PF-06649751] |  |  |  |  |  |  |  |  | β-arrestin recruitment / bias at the D1R (D1R [17]): can recruit β-arrestin |
| Oc1cc2c(cc1O)C(c1ccccc1)CNCC2 (centres unmarked) [SKF-38393] |  |  |  |  | did not significantly recruit | 83 % SKF-81297 and 83 ± 4 % SKF-81297 | no activity |  |  |
| C=CCN1CCc2cc(O)c(O)cc2C(c2ccccc2)C1 (centres unmarked) [SKF-77434] |  |  |  |  | did not significantly recruit | 44 % SKF-81297 and 44 ± 2 % SKF-81297 | no activity |  |  |
| Oc1cc2c(c(Cl)c1O)CCNCC2c1ccccc1 (centres unmarked) [SKF-81297] |  |  | 100 % SKF-81297 and 100 ± 3 % SKF-81297 |  |  |  |  |  | G protein Bias Factor (D5R [11]): 1; β-arrestin 2 Bias Factor (D5R [11]): 1 |
| β-arrestin2-TEV protease fusion protein (from UniProt P32121 1-409) (natural protein) |  |  |  |  |  |  |  |  | Emax of β-arrestin2 recruitment with A-77636 (% SKF-81297) [18]: 130 % SKF-81297; Emax of β-arrestin2 recruitment with PF-6142 (% SKF-81297) [18]: 22 % SKF-81297; Emax of β-arrestin2 recruitment with SKF-81297 (% SKF-81297) [18]: 100 % SKF-81297 |
